Data as given in patent US9623028B2, “Methods of treating a cancer using substituted pyrrolopyrimidine compounds, compositions thereof” (Signal Pharmaceuticals, LLC, priority 2014, dated 2017).
Where two headings read alike, the source gives them in different places.

What was measured:
breast cancer cell lines = experiment: cells; conditions: for IC50: read-out: Growth Inhibition IC50; for GI50: read-out: Growth inhibition GI50
[1] = system: non small cell lung cancer (NSCLC) cell lines; experiment: cells
CLK1 = CLK1 (Homo sapiens (Human), UniProt P49759); experiment: biochemical; conditions: read-out: CLK1 (% Inh.), % inhibition at 3 μM
Chain of CLK1 (P49759 whole entry): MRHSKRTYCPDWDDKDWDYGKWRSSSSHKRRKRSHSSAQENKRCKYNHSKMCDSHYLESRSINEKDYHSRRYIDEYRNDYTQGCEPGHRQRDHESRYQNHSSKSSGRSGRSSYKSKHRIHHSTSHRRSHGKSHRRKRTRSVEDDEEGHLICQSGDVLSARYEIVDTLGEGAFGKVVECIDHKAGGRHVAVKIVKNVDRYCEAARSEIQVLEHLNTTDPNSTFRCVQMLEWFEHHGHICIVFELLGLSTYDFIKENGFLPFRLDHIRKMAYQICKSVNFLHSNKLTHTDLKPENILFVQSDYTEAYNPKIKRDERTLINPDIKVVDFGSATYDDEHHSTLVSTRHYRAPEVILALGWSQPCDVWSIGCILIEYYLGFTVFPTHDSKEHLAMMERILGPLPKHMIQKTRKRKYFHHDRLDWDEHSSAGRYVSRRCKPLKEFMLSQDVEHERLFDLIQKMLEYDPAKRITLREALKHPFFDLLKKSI

CLK2 = CLK2 (Homo sapiens (Human), UniProt P49760); experiment: biochemical; conditions: read-out: CLK2 (% Inh.), % inhibition at 3 μM
Chain of CLK2 (P49760 whole entry): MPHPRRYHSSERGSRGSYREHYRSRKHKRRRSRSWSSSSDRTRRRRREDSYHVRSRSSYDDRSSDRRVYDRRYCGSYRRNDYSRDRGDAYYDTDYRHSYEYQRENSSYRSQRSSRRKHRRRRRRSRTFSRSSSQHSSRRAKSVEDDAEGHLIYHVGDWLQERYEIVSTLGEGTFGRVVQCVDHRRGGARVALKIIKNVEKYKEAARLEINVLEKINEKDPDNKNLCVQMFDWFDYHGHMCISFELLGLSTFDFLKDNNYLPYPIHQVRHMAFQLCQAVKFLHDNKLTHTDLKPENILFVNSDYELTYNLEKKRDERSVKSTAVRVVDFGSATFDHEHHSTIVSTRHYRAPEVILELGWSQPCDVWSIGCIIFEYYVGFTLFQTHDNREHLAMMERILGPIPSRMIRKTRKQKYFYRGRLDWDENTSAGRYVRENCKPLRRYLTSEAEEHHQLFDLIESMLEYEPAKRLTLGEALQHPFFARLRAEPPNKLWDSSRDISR

[2] = Homo sapiens, MDA-MB-175-VII, 96 h

CNC(=O)c1ccc(Nc2nc(OC3CCCC3)c3c(-c4ccc(O)cc4)c[nH]c3n2)c(OC)c1 [Compound 3, 4-((4-(cyclopentyloxy)-5-(4-hydroxyphenyl)-7H-pyrrolo[2,3-d]pyrimidin-2-yl)amino)-3-methoxy-N-methylbenzamide]
IC50 (breast cancer cell lines; EFM-192A, 96 h): 10000 nM
GI50 (breast cancer cell lines; EFM-192A, 96 h): 10000 nM
IC50 (breast cancer cell lines; HCC202, 96 h): 16000 nM
GI50 (breast cancer cell lines; HCC202, 96 h): 15000 nM
GI50 (breast cancer cell lines; HCC1500, 96 h): 53 nM
IC50 (breast cancer cell lines; Homo sapiens, AU565, 96 h): 1100 nM
GI50 (breast cancer cell lines; Homo sapiens, AU565, 96 h): 426 nM
IC50 (breast cancer cell lines; Homo sapiens, BT-20, 96 h): 608 nM
GI50 (breast cancer cell lines; Homo sapiens, BT-20, 96 h): 289 nM
IC50 (breast cancer cell lines; Homo sapiens, BT-474, 96 h): 16300 nM
GI50 (breast cancer cell lines; Homo sapiens, BT-474, 96 h): 6020 nM
IC50 (breast cancer cell lines; Homo sapiens, BT-483, 96 h): 10000 nM
GI50 (breast cancer cell lines; Homo sapiens, BT-483, 96 h): 704 nM
IC50 (breast cancer cell lines; Homo sapiens, BT-549, 96 h): 180 nM
GI50 (breast cancer cell lines; Homo sapiens, BT-549, 96 h): 85 nM
IC50 (breast cancer cell lines; Homo sapiens, CAL-51, 96 h): 9 nM
GI50 (breast cancer cell lines; Homo sapiens, CAL-51, 96 h): 8 nM
IC50 (breast cancer cell lines; Homo sapiens, CAL-85-1, 96 h): 76 nM
GI50 (breast cancer cell lines; Homo sapiens, CAL-85-1, 96 h): 25 nM
IC50 (breast cancer cell lines; Homo sapiens, CAL-120, 96 h): 10000 nM
GI50 (breast cancer cell lines; Homo sapiens, CAL-120, 96 h): 10000 nM
IC50 (breast cancer cell lines; Homo sapiens, CAMA-1, 96 h): 10700 nM
GI50 (breast cancer cell lines; Homo sapiens, CAMA-1, 96 h): 4900 nM
IC50 (breast cancer cell lines; Homo sapiens, DU-4475, 96 h): 560 nM
GI50 (breast cancer cell lines; Homo sapiens, DU-4475, 96 h): 82 nM
IC50 (breast cancer cell lines; Homo sapiens, EFM-19, 96 h): 730 nM
GI50 (breast cancer cell lines; Homo sapiens, EFM-19, 96 h): 67 nM
IC50 (breast cancer cell lines; Homo sapiens, HCC38, 96 h): 47 nM
GI50 (breast cancer cell lines; Homo sapiens, HCC38, 96 h): 17 nM
IC50 (breast cancer cell lines; Homo sapiens, HCC70, 96 h): 1950 nM
GI50 (breast cancer cell lines; Homo sapiens, HCC70, 96 h): 442 nM
IC50 (breast cancer cell lines; Homo sapiens, HCC1143, 96 h): 17500 nM
GI50 (breast cancer cell lines; Homo sapiens, HCC1143, 96 h): 286 nM
IC50 (breast cancer cell lines; Homo sapiens, HCC1187, 96 h): 881 nM
GI50 (breast cancer cell lines; Homo sapiens, HCC1187, 96 h): 470 nM
IC50 (breast cancer cell lines; Homo sapiens, HCC1428, 96 h): 4970 nM
GI50 (breast cancer cell lines; Homo sapiens, HCC1428, 96 h): 1090 nM
IC50 (breast cancer cell lines; Homo sapiens, HCC1569, 96 h): 5430 nM
GI50 (breast cancer cell lines; Homo sapiens, HCC1569, 96 h): 73 nM
IC50 (breast cancer cell lines; Homo sapiens, HCC1937, 96 h): 10000 nM
GI50 (breast cancer cell lines; Homo sapiens, HCC1937, 96 h): 7460 nM
IC50 (breast cancer cell lines; Homo sapiens, HCC1954, 96 h): 482 nM
GI50 (breast cancer cell lines; Homo sapiens, HCC1954, 96 h): 131 nM
IC50 (breast cancer cell lines; Homo sapiens, HCC2157, 96 h): 120 nM
GI50 (breast cancer cell lines; Homo sapiens, HCC2157, 96 h): 24 nM
IC50 (breast cancer cell lines; Homo sapiens, Hs-578T, 96 h): 183 nM
GI50 (breast cancer cell lines; Homo sapiens, Hs-578T, 96 h): 104 nM
IC50 (breast cancer cell lines; Homo sapiens, MCF7, 96 h): 170 nM
GI50 (breast cancer cell lines; Homo sapiens, MCF7, 96 h): 124 nM
IC50 (breast cancer cell lines; Homo sapiens, MCF-10A, 96 h): 17400 nM
GI50 (breast cancer cell lines; Homo sapiens, MCF-10A, 96 h): 426 nM
IC50 (breast cancer cell lines; Homo sapiens, MCF-12A, 96 h): 3150 nM
GI50 (breast cancer cell lines; Homo sapiens, MCF-12A, 96 h): 486 nM
GI50 (breast cancer cell lines; Homo sapiens, MDA-MB-134-VI, 96 h): 874 nM
IC50 (breast cancer cell lines; Homo sapiens, MDA-MB-157, 96 h): 695 nM
GI50 (breast cancer cell lines; Homo sapiens, MDA-MB-157, 96 h): 225 nM
IC50 (breast cancer cell lines; [2]): 8500 nM
GI50 (breast cancer cell lines; [2]): 400 nM
IC50 (breast cancer cell lines; Homo sapiens, MDA-MB-231, 96 h): 38 nM
GI50 (breast cancer cell lines; Homo sapiens, MDA-MB-231, 96 h): 22 nM
IC50 (breast cancer cell lines; Homo sapiens, MDA-MB-361, 96 h): 18800 nM
GI50 (breast cancer cell lines; Homo sapiens, MDA-MB-361, 96 h): 5480 nM
IC50 (breast cancer cell lines; Homo sapiens, MDA-MB-415, 96 h): 13500 nM
GI50 (breast cancer cell lines; Homo sapiens, MDA-MB-415, 96 h): 11700 nM
IC50 (breast cancer cell lines; Homo sapiens, MDA-MB-436, 96 h): 2100 nM
GI50 (breast cancer cell lines; Homo sapiens, MDA-MB-436, 96 h): 1380 nM
IC50 (breast cancer cell lines; Homo sapiens, MDA-MB-453, 96 h): 2790 nM
GI50 (breast cancer cell lines; Homo sapiens, MDA-MB-453, 96 h): 799 nM
IC50 (breast cancer cell lines; Homo sapiens, MDA-MB-468, 96 h): 32 nM
GI50 (breast cancer cell lines; Homo sapiens, MDA-MB-468, 96 h): 27 nM
IC50 (breast cancer cell lines; Homo sapiens, SK-BR-3, 96 h): 3690 nM
GI50 (breast cancer cell lines; Homo sapiens, SK-BR-3, 96 h): 1180 nM
IC50 (breast cancer cell lines; Homo sapiens, T47D, 96 h): 418 nM
GI50 (breast cancer cell lines; Homo sapiens, T47D, 96 h): 162 nM
IC50 (breast cancer cell lines; Homo sapiens, UACC-812, 96 h): 1790 nM
GI50 (breast cancer cell lines; Homo sapiens, UACC-812, 96 h): 842 nM
IC50 (breast cancer cell lines; Homo sapiens, ZR-75-1, 96 h): 6390 nM
GI50 (breast cancer cell lines; Homo sapiens, ZR-75-1, 96 h): 1140 nM
IC50 (breast cancer cell lines; Homo sapiens, ZR-75-30, 96 h): 30000 nM
GI50 (breast cancer cell lines; Homo sapiens, ZR-75-30, 96 h): 11600 nM
IC50 (breast cancer cell lines; KPL-1, 96 h): 693 nM
GI50 (breast cancer cell lines; KPL-1, 96 h): 245 nM
IC50 ([1]; Homo sapiens, A549, 72 h, read-out: Average IC50 (μM)): 0.05 µM
IC50 ([1]; Homo sapiens, HOP-62, 72 h, read-out: Average IC50 (μM)): 0.05 µM
IC50 ([1]; Homo sapiens, HOP-92, 72 h, read-out: Average IC50 (μM)): 1.27 µM
IC50 ([1]; Homo sapiens, NCI-H441, 72 h, read-out: Average IC50 (μM)): 2.1 µM
IC50 ([1]; Homo sapiens, NCI-H460, 72 h, read-out: Average IC50 (μM)): 0.04 µM
IC50 ([1]; Homo sapiens, NCI-H1299, 72 h, read-out: Average IC50 (μM)): 0.36 µM
IC50 ([1]; Homo sapiens, NCI-H1437, 72 h, read-out: Average IC50 (μM)): 0.39 µM
IC50 ([1]; Homo sapiens, NCI-H1563, 72 h, read-out: Average IC50 (μM)): 1.77 µM
IC50 ([1]; Homo sapiens, NCI-H1650, 72 h, read-out: Average IC50 (μM)): 0.62 µM
IC50 ([1]; Homo sapiens, NCI-H1734, 72 h, read-out: Average IC50 (μM)): 0.91 µM
IC50 ([1]; Homo sapiens, NCI-H1838, 72 h, read-out: Average IC50 (μM)): 16.1 µM
IC50 ([1]; Homo sapiens, NCI-H2228, 72 h, read-out: Average IC50 (μM)): 1.58 µM
IC50 ([1]; Homo sapiens, NCI-H2291, 72 h, read-out: Average IC50 (μM)): 16.3 µM
IC50 ([1]; Homo sapiens, SK-LU-1, 72 h, read-out: Average IC50 (μM)): 0.83 µM
IC50 ([1]; Homo sapiens, SW1573, 72 h, read-out: Average IC50 (μM)): 0.96 µM
IC50 ([1]; read-out: growth inhibition IC50 values): ≤ 2 µM
inhibition at 3 µM (CLK1): 91%
inhibition at 3 µM (CLK2): 104%
